In patent US8822468B2 (Novartis AG, priority 2008, dated 2014) one finds IC50 data, which are given here for 41 compounds.

T1 sequence (P08581 969-1390): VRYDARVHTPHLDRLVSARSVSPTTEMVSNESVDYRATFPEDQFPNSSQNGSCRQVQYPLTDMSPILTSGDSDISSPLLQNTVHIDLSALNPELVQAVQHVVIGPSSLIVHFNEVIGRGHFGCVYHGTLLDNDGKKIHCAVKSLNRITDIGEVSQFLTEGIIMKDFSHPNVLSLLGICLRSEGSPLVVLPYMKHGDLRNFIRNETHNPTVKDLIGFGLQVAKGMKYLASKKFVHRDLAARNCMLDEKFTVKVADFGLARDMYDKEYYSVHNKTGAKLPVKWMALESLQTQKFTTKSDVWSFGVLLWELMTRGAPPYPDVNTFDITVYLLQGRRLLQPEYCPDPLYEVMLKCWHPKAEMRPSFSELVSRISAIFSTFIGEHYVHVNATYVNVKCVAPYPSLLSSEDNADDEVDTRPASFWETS

This experiment has as its target T1, cMET receptor tyrosine kinase (GST-cMET (969-1390)) (Homo sapiens, UniProt P08581).
T1 construct: made in house
The experiment can be described thus: EPK cMET profiling assay (LanthaScreen TR-FRET antibody based kinase phosphorylation assay). It is filed as biochemical. The note with it: purified recombinant GST-cMET (969-1390), 2 μM ATP, 50 nM Fluorescein-PolyEAY, 60 minutes at room temperature; read-out: c-Met IC50. A digest of the protocol:
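Compounds tested at eight final concentrations from 10 down to 0.003 µM against affinity-purified GST-cMET (969-1390, 0.3 nM) with 2 µM ATP and 50 nM fluorescein-PolyEAY in Tris buffer with MgCl2 and MnCl2, 1 h at room temperature. After EDTA stop, phosphoproduct detected by LanthaScreen TR-FRET with Tb-PY20 antibody, end-point measurement.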
(In general: TR-FRET usually uses a lanthanide donor and a delayed reading to cut background.)
Take `FC(F)(F)c1cccc(-c2ccc3ncc(Cc4ccc5ncccc5c4)n3n2)c1` [Example 18, 6-[6-(3-Trifluoromethyl-phenyl)-imidazo[1,2-b]pyridazin-3-ylmethyl]-quinoline]: the 50% inhibitory concentration (IC50) was determined as 65.5 nM.

As for `Brc1ccc(-c2ccc3ncc(Cc4ccc5ncccc5c4)n3n2)cc1` [Example 19, 6-[6-(4-Bromo-phenyl)-imidazo[1,2-b]pyridazin-3-ylmethyl]-quinoline], the IC50 was 215 nM.

Turning to `Nc1cccc(-c2ccc3ncc(Cc4ccc5ncccc5c4)n3n2)c1` [Example 20, 3-(3-Quinolin-6-ylmethyl-imidazo[1,2-b]pyridazin-6-yl)-phenylamine], the IC50 turned out to be 60 nM.

Consider `CC(=O)c1ccc(-c2ccc3ncc(Cc4ccc5ncccc5c4)n3n2)cc1` [Example 21, 1-[4-(3-Quinolin-6-ylmethyl-imidazo[1,2-b]pyridazin-6-yl)-phenyl]-ethanone], for which the IC50 came out at 27.5 nM.

Take `O=[N+]([O-])c1cccc(-c2ccc3ncc(Cc4ccc5ncccc5c4)n3n2)c1` [Example 22, 6-[6-(3-Nitro-phenyl)-imidazo[1,2-b]pyridazin-3-ylmethyl]-quinoline]: the IC50 worked out at 7.4 nM.

Take `CSc1ccc(-c2ccc3ncc(Cc4ccc5ncccc5c4)n3n2)cc1` [Example 23, 6-[6-(4-Methylsulfanyl-phenyl)-imidazo[1,2-b]pyridazin-3-ylmethyl]-quinoline]: the IC50 was found to be 125 nM.

Consider `O=Cc1cccc(-c2ccc3ncc(Cc4ccc5ncccc5c4)n3n2)c1` [Example 24, 3-(3-Quinolin-6-ylmethyl-imidazo[1,2-b]pyridazin-6-yl)-benzaldehyde], for which the IC50 is 23.5 nM.

As to `Fc1ccc(-c2ccc3ncc(Cc4ccc5ncccc5c4)n3n2)cc1` [Example 25, 6-[6-(4-Fluoro-phenyl)-imidazo[1,2-b]pyridazin-3-ylmethyl]-quinoline], the IC50 was determined as 48 nM.

As to `N#Cc1cccc(-c2ccc3ncc(Cc4ccc5ncccc5c4)n3n2)c1` [Example 26, 3-(3-Quinolin-6-ylmethyl-imidazo[1,2-b]pyridazin-6-yl)-benzonitrile], the IC50 stood at 20 nM.

For `Clc1ccc(-c2ccc3ncc(Cc4ccc5ncccc5c4)n3n2)cc1` [Example 27, 6-[6-(4-Chloro-phenyl)-imidazo[1,2-b]pyridazin-3-ylmethyl]-quinoline], the IC50 was found to be 110 nM.

Turning to `CC(=O)Nc1cccc(-c2ccc3ncc(Cc4ccc5ncccc5c4)n3n2)c1` [Example 28, N-[3-(3-Quinolin-6-ylmethyl-imidazo[1,2-b]pyridazin-6-yl)-phenyl]-acetamide], the IC50 amounted to 240 nM.

As for `c1cncc(-c2ccc3ncc(Cc4ccc5ncccc5c4)n3n2)c1` [Example 29, 6-(6-Pyridin-3-yl-imidazo[1,2-b]pyridazin-3-ylmethyl)-quinoline], the IC50 worked out at 40 nM.

Turning to `c1ccc(-c2ccc3ncc(Cc4ccc5ncccc5c4)n3n2)cc1` [Example 30, 6-(6-Phenyl-imidazo[1,2-b]pyridazin-3-ylmethyl)-quinoline], the concentration for half-maximal inhibition (IC50) was 91 nM.

`c1cnc2ccc(Cc3cnc4ccc(-c5cc6ccccc6o5)nn34)cc2c1` [Example 31, 6-(6-Benzofuran-2-yl-imidazo[1,2-b]pyridazin-3-ylmethyl)-quinoline]: the IC50 is 230 nM.

Take `FC(F)(F)c1ccc(-c2ccc3ncc(Cc4ccc5ncccc5c4)n3n2)cc1` [Example 33, 6-[6-(4-Trifluoromethyl-phenyl)-imidazo[1,2-b]pyridazin-3-ylmethyl]-quinoline]: the IC50 worked out at 370 nM.

As to `c1ccc(-c2cc(-c3ccc4ncc(Cc5ccc6ncccc6c5)n4n3)on2)cc1` [Example 34, 6-[6-(3-Phenyl-isoxazol-5-yl)-imidazo[1,2-b]pyridazin-3-ylmethyl]-quinoline], the IC50 was 230 nM.

Turning to `COc1ccc(-c2ccc3ncc(Cc4ccc5ncccc5c4)n3n2)cc1` [Example 35, 6-[6-(4-Methoxy-phenyl)-imidazo[1,2-b]pyridazin-3-ylmethyl]-quinoline], the IC50 was found to be 79 nM.

`CN(C)c1cccc(-c2ccc3ncc(Cc4ccc5ncccc5c4)n3n2)c1` [Example 36, Dimethyl-[3-(3-quinolin-6-ylmethyl-imidazo[1,2-b]pyridazin-6-yl)-phenyl]-amine]: the IC50 stood at 65 nM.

With `Cn1ccc2cc(-c3ccc4ncc(Cc5ccc6ncccc6c5)n4n3)ccc21` [Example 37, 6-[6-(1-Methyl-1H-indol-5-yl)-imidazo[1,2-b]pyridazin-3-ylmethyl]-quinoline], the IC50 was found to be 30 nM.

Take `c1cnc2ccc(Cc3cnc4ccc(-c5cc6ccccc6s5)nn34)cc2c1` [Example 38, 6-(6-Benzo[b]thiophen-2-yl-imidazo[1,2-b]pyridazin-3-ylmethyl)-quinoline]: the IC50 came to 39 nM.

Regarding `c1cnc2ccc(Cc3cnc4ccc(-c5cnc6ccccc6c5)nn34)cc2c1` [Example 39, 6-(6-Quinolin-3-yl-imidazo[1,2-b]pyridazin-3-ylmethyl)-quinoline], the IC50 is 72 nM.

Consider `COc1ccc2cc(-c3ccc4ncc(Cc5ccc6ncccc6c5)n4n3)ccc2c1` [Example 40, 6-[6-(6-Methoxy-naphthalen-2-yl)-imidazo[1,2-b]pyridazin-3-ylmethyl]-quinoline], for which the IC50 was 130 nM.

In the case of `Clc1ccc(-c2ccc3ncc(Cc4ccc5ncccc5c4)n3n2)s1` [Example 41, 6-[6-(5-Chloro-thiophen-2-yl)-imidazo[1,2-b]pyridazin-3-ylmethyl]-quinoline], the IC50 worked out at 56 nM.

On to `c1cnc2ccc(Cc3cnc4ccc(-c5cncc6ccccc56)nn34)cc2c1` [Example 42, 6-(6-Isoquinolin-4-yl-imidazo[1,2-b]pyridazin-3-ylmethyl)-quinoline], for which the IC50 was 450 nM.

As for `FC(F)(F)Oc1ccc(-c2ccc3ncc(Cc4ccc5ncccc5c4)n3n2)cc1` [Example 43, 6-[6-(4-Trifluoromethoxy-phenyl)-imidazo[1,2-b]pyridazin-3-ylmethyl]-quinoline], the IC50 was 350 nM.

Turning to `c1cnc2ccc(Cc3cnc4ccc(-c5ccc6[nH]ccc6c5)nn34)cc2c1` [Example 45, 6-[6-(1H-Indol-5-yl)-imidazo[1,2-b]pyridazin-3-ylmethyl]-quinoline], the IC50 stood at 100 nM.

For the compound `CCCn1cc(-c2ccc3ncc(Cc4ccc5ncccc5c4)n3n2)cn1` [Example 46, 6-[6-(1-Propyl-1H-pyrazol-4-yl)-imidazo[1,2-b]pyridazin-3-ylmethyl]-quinoline], the IC50 was found to be 57 nM.

For the compound `Clc1ccc(-c2ccc3ncc(Cc4ccc5ncccc5c4)n3n2)cn1` [Example 47, 6-[6-(6-Chloro-pyridin-3-yl)-imidazo[1,2-b]pyridazin-3-ylmethyl]-quinoline], the IC50 amounted to 100 nM.

Regarding `Clc1ccc(-c2ccc(-c3ccc4ncc(Cc5ccc6ncccc6c5)n4n3)cn2)cn1` [Example 48, 6′-Chloro-5-(3-quinolin-6-ylmethyl-imidazo[1,2-b]pyridazin-6-yl)-[2,3′]bipyridinyl], the IC50 was 190 nM.

For the compound `Clc1cc(-c2ccc3ncc(Cc4ccc5ncccc5c4)n3n2)ccn1` [Example 49, 6-[6-(2-Chloro-pyridin-4-yl)-imidazo[1,2-b]pyridazin-3-ylmethyl]-quinoline], the IC50 stood at 23 nM.

With `Clc1cc(-c2cc(-c3ccc4ncc(Cc5ccc6ncccc6c5)n4n3)ccn2)ccn1` [Example 50, 2′-Chloro-4-(3-quinolin-6-ylmethyl-imidazo[1,2-b]pyridazin-6-yl)-[2,4′]bipyridinyl], the IC50 was found to be 950 nM.

For `c1cnc2ccc(Cc3cnc4ccc(-c5ccc6c(c5)OCO6)nn34)cc2c1` [Example 51, 6-(6-Benzo[1,3]dioxol-5-yl-imidazo[1,2-b]pyridazin-3-ylmethyl)-quinoline], the IC50 is 95 nM.

As for `c1cnc2ccc(Cc3cnc4ccc(-c5ccc6nonc6c5)nn34)cc2c1` [Example 52, 6-(6-Benzo[1,2,5]oxadiazol-5-yl-imidazo[1,2-b]pyridazin-3-ylmethyl)-quinoline], the half-maximal inhibitory concentration (IC50) came out at 240 nM.

With `Clc1cccc(-c2ccc3ncc(Cc4ccc5ncccc5c4)n3n2)c1` [Example 53, 6-[6-(3-Chloro-phenyl)-imidazo[1,2-b]pyridazin-3-ylmethyl]-quinoline], the IC50 was determined as 110 nM.

Regarding `c1cnc2ccc(Cc3cnc4ccc(-c5cncnc5)nn34)cc2c1` [Example 54, 6-(6-Pyrimidin-5-yl-imidazo[1,2-b]pyridazin-3-ylmethyl)-quinoline], the IC50 is 120 nM.

In the case of `CC(=O)c1cccc(-c2ccc3ncc(Cc4ccc5ncccc5c4)n3n2)c1` [Example 55, 1-[3-(3-Quinolin-6-ylmethyl-imidazo[1,2-b]pyridazin-6-yl)-phenyl]-ethanone], the IC50 was determined as 31 nM.

On to `COc1ncc(-c2ccc3ncc(Cc4ccc5ncccc5c4)n3n2)cn1` [Example 56, 6-[6-(2-Methoxy-pyrimidin-5-yl)-imidazo[1,2-b]pyridazin-3-ylmethyl]-quinoline], for which the IC50 worked out at 250 nM.

As for `NC(=O)c1cccc(-c2ccc3ncc(Cc4ccc5ncccc5c4)n3n2)c1` [Example 57, 3-(3-Quinolin-6-ylmethyl-imidazo[1,2-b]pyridazin-6-yl)-benzamide], the IC50 is 63 nM.

In the case of `CNC(=O)c1cccc(-c2ccc3ncc(Cc4ccc5ncccc5c4)n3n2)c1` [Example 58, N-Methyl-3-(3-quinolin-6-ylmethyl-imidazo[1,2-b]pyridazin-6-yl)-benzamide], the IC50 worked out at 250 nM.

Consider `CN(C)C(=O)c1cccc(-c2ccc3ncc(Cc4ccc5ncccc5c4)n3n2)c1` [Example 59, N,N-Dimethyl-3-(3-quinolin-6-6-ylmethyl-imidazo[1,2-b]pyridazin-6-yl)-benzamide], for which the IC50 was 560 nM.

As to `CCOC(=O)c1cccc(-c2ccc3ncc(Cc4ccc5ncccc5c4)n3n2)c1` [Example 60, 3-(3-Quinolin-6-ylmethyl-imidazo[1,2-b]pyridazin-6-yl)-benzoic acid ethyl ester], the IC50 came out at 340 nM.

One may read the IC50 as the concentration needed to halve the response being measured.
